From patent US20230251277A1, “METHOD FOR DETERMINING THE LEVEL OF VITAMIN D AND METABOLITES THEREOF” (Roche Diagnostics Operations, Inc., priority 2020, published 2023) come the findings set out here.

Data set [1] is described as follows: Dynamic viscosity of the releasing reagent solution. Format: physicochemical.
A short description of another data set: physchem. The following applies: aqueous with cosolvent or surfactant or cyclodextrin.
The target in data set [2] is T1, Vitamin D binding protein (Homo sapiens, UniProt P02774).
T1 sequence (P02774 17-474): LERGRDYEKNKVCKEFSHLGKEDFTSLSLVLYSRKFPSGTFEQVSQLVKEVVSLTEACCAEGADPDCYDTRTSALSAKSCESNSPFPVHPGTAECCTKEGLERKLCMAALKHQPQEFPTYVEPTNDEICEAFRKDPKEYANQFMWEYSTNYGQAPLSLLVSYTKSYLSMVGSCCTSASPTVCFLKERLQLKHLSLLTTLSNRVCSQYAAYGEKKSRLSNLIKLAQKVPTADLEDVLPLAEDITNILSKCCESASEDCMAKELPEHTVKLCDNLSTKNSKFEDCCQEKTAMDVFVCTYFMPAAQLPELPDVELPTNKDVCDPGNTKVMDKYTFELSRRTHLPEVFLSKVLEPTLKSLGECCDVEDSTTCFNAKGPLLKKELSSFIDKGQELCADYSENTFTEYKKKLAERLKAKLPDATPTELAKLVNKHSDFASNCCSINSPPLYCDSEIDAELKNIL
Description: Screening of releasing reagent candidates: recovery of Vitamin D metabolites from spiked native serum pool (immunobead capture, LC-MS/MS). Format: biochemical. Further details: native serum pool and homogenized; from tissue; host or cells: native serum pool (spiked with vitamin D metabolites). The following applies: 45 µl pretreatment reagent at the concentration of the 1st table. The protocol: 0.30 ml di-OH Vitamin D stock solution ([…] 24R,25-di-OH Vitamin D3 and […] 24R,25-di-OH Vitamin D2 in methanol) and 0.55 ml mono-OH Vitamin D stock solution (10.00 µg/ml 25-OH Vitamin D3 and 10.00 µg/ml 25-OH Vitamin D2 in methanol) are added to 99.1 5 ml native serum pool and homogenized. Thus resulting concentrations in the spiked pool are: • 3.9 ng/ml 24R,25-di-OH Vitamin D3 • 6.0 ng/ml 24R,25-di-OH Vitamin D2 • 55.0 ng/ml 25-OH Vitamin D2 • 84.9 ng/ml 25-OH Vitamin D3 Endogenous amounts in the original native serum pool are taken into account.
Molar concentrations of the evaluated chemicals are:
10 µl Vitamin D free serum (representing ISTD dummy) are pipetted to 145 µl sample in a plastic vessel. After incubation with periodic shaking for 231 s at 37° C., 45 µl pretreatment reagent are added. Again, an incubation with periodic shaking for 640 s at 37° C. takes place. Therefore Vitamin D should be or is gently released from Vitamin D binding protein. In the next step 50 µl immunobead suspension are pipetted to the mixture. Again, an incubation with periodic shaking for 393 s at 37℃ takes place. After twofold bead wash using 0.01 M PBS and magnetic separation, 60 µl of the elution reagent water/methanol 2/8 (v/v) are added and a 40 s incubation period takes place. It is possible to transfer 40 µl supernatant in a HPLC glass vial while 20 µl have to remain in the vessel to avoid the carry-over of beads into the supernatant. In the final step 40 µl internal standard working solution are added to the supernatant and homogenized by means of sip and spit pipetting technique.
HPLC-MS/MS analysis is performed using a 1290 infinity Multisampler and a 1290 Inifinity LC System (Agilent Technologies, Santa Clara/USA) coupled to a Triple Quad 6500+ MS (Sciex, Darmstadt).
40 µl of each sample are injected on the analytical C18 column (50×2.1 mm, 2.6 µm, Hitachi, Tokio/Japan) in order to separate the analytes. This is realized with a flow rate of 1.0 ml/min and at a column temperature of 50° C. Separation of the analytes is achieved with the following gradient of 50 mM formic acid (A) and methanol (B): • 0.00 min: 80% […] • 0.70 min: 90% B • 0.75 min: 98% B • 1.70 min: 98% B • 1.80 min: 80% B • 2.40 min: 80% B
The coupled MS detector is operating in positive electrospray ionisation (ESI) mode. The Vitamin D analytes are detected using multi reaction monitoring (MRM) technique. Doing this two periods are applied: 0.00-0.60 min for measurement of 24R,25-di-OH Vitamin D2/D3 and 0.60-2.40 min for the detection of 25-OH Vitamin
Calibration is performed by means of LC-MS/MS of Vitamin D standards in solvent (60% MeOH) containing internal standards as concentrated as in the processed samples. For example, calibration levels for 25-OH Vitamin D3 are 2, 5, 10, 25, 50 and 100 ng/ml, while the concentration of 25-OH Vitamin D3 13C5 is set to 30 ng/ml.
Due to the fact that internal standard concentrations are identical both in calibrators and processed samples, it is possible to calculate recoveries for each analyte with the formula: […]
The results are shown in FIGS. 2 to 5 show the recovery of the releasing reagent candidates for 25-OH Vitamin D3 (FIG. 2), 25-OH Vitamin D2 (FIG. 3), 24R25-di-OH Vitamin D3 (FIG. 4) and 24R25-di-OH Vitamin D2 (FIG. 5).
Each error bar in FIGS. 2 and 5 is constructed using the min and the max. of the data.

Data set [3] concerns the target T1, Vitamin D binding protein. Description: Pretreatment optimization (design of experiments): 25-OH Vitamin D3 area ratio / analyte recovery in serum, plasma, Vitamin D free serum.

The structures appear in SMILES notation. Values after ≈ are worked out from the molar mass of the structure shown. “Also recorded” adds a separate entry of the source.

With `O=C([O-])c1ccccc1O.[Na+]` [PT1, Sodium Salicylate, reference compound], the dynamic viscosity was found to be 23 mPas in data set [1] (at 6° C. for 5.6 M solution in 0.01 M PBS/methanol 9/1) and 23 mPa·s in data set [1] (at 6° C., (pre)treatment containing 5.6 M (PT1)). Also, in the data set “physchem”, the solubility (commonly the dissolved amount per volume that the medium holds) came out at 5600 mM. Moreover, the “recovery of Vitamin D metabolites (25-OH D3, 25-OH D2, 24R,25-di-OH D3, 24R,25-di-OH D2)” value (from here on “recovery of Vitamin D metabolites”) in data set [2] (FIGS. 2 to 5) was “Highest recoveries”.
The molecule `N.O=C(O)c1ccccc1O` [PT2, Ammonium Salicylate] showed a solubility in the data set “physchem” of 5600 mM. Besides, the “recovery of Vitamin D metabolites” value in data set [2] (FIGS. 2 to 5) was “Highest recoveries”.
Consider `O=C(OCCO)c1ccccc1O` [PT3, Ethylen glycol monosalicylate], for which the solubility in “physchem” came out at 50 mM (≈ 9110 µg/mL).
On the same count and under the same terms, in the case of `O=C(O)c1ccc(O)c(C(=O)O)c1` [PT4, 4-Hydroxyisophthalic acid] it was 1 mM (≈ 182 µg/mL).
In “physchem”, `O=C(O)c1cccc(O)c1` [PT5, 3-Hydroxybenzoic acid] gave a solubility of 50 mM (≈ 6910 µg/mL). Moreover, in data set [2] (FIGS. 2 to 5), the “recovery of Vitamin D metabolites” value is recorded as “Highest recoveries”.
In turn, `Cc1ccc(C(=O)O)c(O)c1` [PT6, 4-Methylsalicylic acid] showed a solubility in “physchem” of 20 mM (≈ 3040 µg/mL).
Take `O=C(O)c1ccc(O)cc1O` [PT7, 2,4-Dihydroxybenzoic acid]: in “physchem”, the concentration in solution (solubility) was 50 mM (≈ 7710 µg/mL). Further, the “recovery of Vitamin D metabolites” value in data set [2] (FIGS. 2 to 5) is reported as “Highest recoveries”.
`COC(=O)c1ccc(O)cc1.[Na]` [PT8, Methylparaben Sodium]: the “recovery of Vitamin D metabolites” value in data set [2] (FIGS. 2 to 5) is “Lowest recoveries”.
Take `COc1ccccc1C(=O)O` [PT9, 2-Methoxy-benzoic acid]: the solubility in the data set “physchem” turned out to be 30 mM (≈ 4560 µg/mL).
On to `CC(=O)Oc1ccccc1C(=O)O` [PT10, Aspirin, reference compound], for which the concentration in solution in the data set “physchem” (solubility) was 10 mM (≈ 1800 µg/mL).
The molecule `O=C(O)c1cc(/N=N/c2ccc(S(=O)(=O)Nc3ccccn3)cc2)ccc1O` [PT11, Sulfasalazine, reference compound] displayed a solubility in “physchem” of 9 mM (≈ 3590 µg/mL). This solubility and that of the molecule before are within 1.5-fold of each other.
For the molecule `O=C(O)c1ccccc1O` [PT12, Salicylic acid, reference compound], in “physchem”, the solubility was found to be 30 mM (≈ 4140 µg/mL).
Still for that read-out and setting: the value for `Cc1ccc(O)c(C(=O)O)c1` [PT13, 2-Hydroxy-5-methylbenzoic acid] was 10 mM (≈ 1520 µg/mL).
With `COC(=O)c1ccc(O)cc1` [PT14, Methyl-4-hydroxybenzoate], the “recovery of Vitamin D metabolites” value in data set [2] (FIGS. 2 to 5) is “Lowest recoveries”.
The molecule `Cc1cccc(C(=O)O)c1O` [PT15, 3-Methylsalicylic acid] yielded a solubility in the data set “physchem” of 10 mM (≈ 1520 µg/mL).
Molecule `COC(=O)c1ccccc1O` [PT16, Methyl Salicylate, reference compound] showed a solubility in “physchem” of 10 mM (≈ 1520 µg/mL).
For the molecule `O=C(Oc1ccccc1)c1ccccc1O` [PT17, Phenyl Salicylate], in “physchem”, the solubility is 0.9 mM (≈ 193 µg/mL). Compared with the last molecule, the solubility is about 11-fold lower.
`O=C(O)c1cc(-c2ccc(F)cc2F)ccc1O` [PT18, Diflunisal, reference compound]: the solubility in the data set “physchem” worked out at 0.4 mM (≈ 100 µg/mL). This solubility lies about 2.2-fold lower than the previous one.
In the case of `CCOC(=O)c1cc(OCC)ccc1O` [PT19, Ethyl-5-ethoxy-2-hydroxybenzoate], the concentration in solution in the data set “physchem” (solubility) was 4 mM (≈ 841 µg/mL).
In turn, `O=C([O-])c1cccc(O)c1.[Na+]` [PT20, 3-Hydroxybenzoic acid sodium salt] had a solubility in “physchem” of 2800 mM. In addition, the “recovery of Vitamin D metabolites” value in data set [2] (FIGS. 2 to 5) was “Highest recoveries”.
Turning to `Cc1cccc(C(=O)[O-])c1O.[Na+]` [PT21, 3-Methyl Salicylic acid Sodium salt], the dynamic viscosity in data set [1] (at 6° C., 2.3 M dissolved in 35/65 MeOH/0.01 M PBS (v/v)) stood at 8.3 mPa·s. Further, the “recovery of Vitamin D metabolites” value is reported as “Highest recoveries; also recorded: highest analyte recovery” in data set [2] (FIGS. 2 to 5, Sodium salt) and “highest analyte recovery” in data set [2] (FIGS. 2 to 5, listed as 3-methylsalicylic acid sodium salt, Sodium salt). Also, in data set [3] (450 mM formic acid/0.7 M versus 0 mM formic acid/2.3 M), the “Vitamin D release in a patient serum sample” value is recorded as “comparable Vitamin D release”. Moreover, the “analyte recovery compared with 5.6 M Salicylic acid sodium salt (PT1)” value in data set [3] (optimized pretreatment: 2.3 M, 35/65 (v/v) methanol/0.01 M PBS, 0% FA, Sodium salt) is recorded as “comparable to the recovery with salicylic acid sodium salt”.
With `O=C(O)c1ccc(C(F)(F)F)cc1O` [PT22, 2-Hydroxy-4-trifluoromethylbenzoic acid], the concentration in solution in the data set “physchem” (solubility) came to 6 mM (≈ 1240 µg/mL).
